The text below walks through data of paper doi:10.1101/2024.11.09.622828v1 (biorxiv, 2024).

Broadly, the IC50 is the concentration that inhibits the measured activity by half. A higher IC50 goes with weaker potency in that assay.

Assay [1] has as its target LDH-A (lactate dehydrogenase-A). The experiment in a line: NADH oxidation at […] nm, crude goat liver enzyme. The class given is biochemical, Capra hircus. The conditions noted are these: 1.8 mM pyruvate, 5 mM NADH, 50 mM Tris pH 7.6.
Assay [2] deals with T1, Porcine pancreatic α-amylase (PPA) (Sus scrofa, UniProt P00690).
T1 sequence (P00690 16-511): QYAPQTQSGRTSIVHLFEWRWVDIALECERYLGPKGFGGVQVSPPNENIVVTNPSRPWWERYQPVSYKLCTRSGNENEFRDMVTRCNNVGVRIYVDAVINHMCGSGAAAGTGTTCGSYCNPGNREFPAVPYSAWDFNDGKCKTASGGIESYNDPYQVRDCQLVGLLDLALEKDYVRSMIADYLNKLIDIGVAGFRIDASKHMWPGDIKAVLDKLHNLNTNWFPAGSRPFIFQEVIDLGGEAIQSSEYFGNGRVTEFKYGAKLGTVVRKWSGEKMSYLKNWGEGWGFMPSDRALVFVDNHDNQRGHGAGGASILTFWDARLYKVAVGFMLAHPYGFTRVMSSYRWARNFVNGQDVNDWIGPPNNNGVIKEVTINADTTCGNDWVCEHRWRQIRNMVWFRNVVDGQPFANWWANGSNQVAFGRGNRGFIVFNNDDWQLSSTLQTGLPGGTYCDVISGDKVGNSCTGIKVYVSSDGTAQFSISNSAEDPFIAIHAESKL
Briefly: DNS reducing sugar assay, […] nm. The class given is biochemical.

In assay [1], `O=c1c(O)c(-c2ccc(O)c(O)c2)oc2cc(O)cc(O)c12` [Q, Quercetin] gave an IC50 of 4.16 µM. Regarding `O=C1C[C@@H](c2ccc(O)c(O)c2)Oc2cc(O)cc(O)c21` [E, Eriodictyol], the IC50 in assay [2] is 22 µM. Same read-out and setting: the value for `O=c1c(O)c(-c2cc(O)c(O)c(O)c2)oc2cc(O)cc(O)c12` [M, Myricetin] was 24 µM.
